Tested on: tonsils, throat and back of the mouth
Experiment: topical application of lactic acid (diluted in a liquid carrier such as juice) to tonsils, throat and back of the mouth
Type: in vivo, human
Method: In one aspect, a mixture of 10% by volume of pharmaceutical lactic acid is mixed with 90% by volume liquid carrier, such as juice, and the mixture is ingested 3 times a day for a month at a dosage of one teaspoon (approximately 0.005 liters) per application. After a two week pause, the patient is evaluated for the reduction in size of the tonsils. […] The number of applications per day can be reduced to two times a day, in the event that it is hard to implement with the patient, thus extending the duration of the treatment by 10 days.
In one aspect, the mixture or solution is ingested, such as by repeatedly drinking, as at step 50, over a period of time such as a week, to topically apply the mixture or solution constituents to the surfaces of the tonsils, throat and/or mouth, at least twice, with a duration of time between the two applications.

CC(O)C(=O)O (stereo not drawn) [lactic acid, Lactic Acid]
size of the tonsils (topical application to tonsils, throat and mouth): reduction of the size of the tonsils | recurrence of the inflammation and infection causing the inflammation (topical application, lactic acid diluted in a liquid carrier such as a juice): reduction in the recurrence of the inflammation and infection | inflammation and pain in the treated areas (topical application, lactic acid diluted in a liquid carrier such as a juice, drunk or otherwise applied): reduction of both inflammation and pain in the treated areas
